In US10543198B2 (Celgene Quanticel Research, Inc., priority 2014, dated 2020):

Tests used:
[1] = target: full-length human LSD1 (Homo sapiens (Human), UniProt O60341); test: In Vitro Enzyme Inhibition Assay - LSD-1 (TR-FRET); type: biochemical; settings: 0.1 nM LSD1, H3K4me1-biotin peptide
Experimental: This assay determines the ability of a test compound to inhibit LSD1 demethylase activity.
The enzymatic assay of LSD1 activity is based on Time Resolved-Fluorescence Resonance Energy Transfer (TR-FRET) detection.
The ability of the compounds disclosed herein to inhibit LSD1 activity was quantified and the respective IC50 value was determined.

[2] = tested on: THP-1 (AML) cells; test: LSD1 CD11b Cellular Assay (flow cytometry); type: cell-based; settings: Homo sapiens, 96 h; CD11b expression in THP-1 cells, 4 days incubation
Experimental: To analyze LSD1 inhibitor efficacy in cells, a CD11b flow cytometry assay was performed. LSD1 inhibition induces CD11b expression in THP-1 (AML) cells which can be measured by flow cytometry. […] LSD1 test compounds were serially diluted in DMSO. The dilutions were added to each well accordingly to a final concentration of 0.2% DMSO. The cells were incubated at 37 degrees Celsius in 5% CO2 for 4 days. 250 μL of each well was transferred to a well in a 96 well round bottom plate. The plate was centrifuged at 1200 rpm at 4 degrees Celsius in a Beckman Coulter Alegra 6KR centrifuge for 5 minutes. The media was removed leaving the cells at the bottom of the wells. The cells were washed in 100 μL cold HBSS (Hank's Balanced Salt Solution) plus 2% BSA (Bovine Serum Albumin) solution and centrifuged at 1200 rpm at 4 degrees Celsius for 5 minutes. The wash was removed. […] The cells were centrifuged and washed two times in 100 μl HBSS plus 2% BSA. After the final spin the cells were resuspended in 100 μL HBSS plus 2% BSA containing 1 ug/mL DAPI (4′,6-diamidino-2-phenylindole). The cells were then analyzed by flow cytometry in a BD FACSAria machine. Cells were analyzed for CD11b expression. The percent of CD11b expressing cells for each inhibitor concentration was used to determine an IC50 curve for each compound analyzed.

Row | Structure (SMILES) | IC50 [1] [nM] | IC50 [2] [nM]
1 | CNC1CCN(c2cnc(-c3cc4ncn(C)c4c(F)c3F)c(-c3ccc(C#N)c(F)c3)n2)CC1 [Example 62, 4-[3-(6,7-difluoro-1-methylbenzimidazol-5-yl)-6-[4-(methylamino)piperidin-1-yl]pyrazin-2-yl]-2-fluorobenzonitrile] | < 100 | < 100
2 | Cn1ccc2cc(-c3ncc(N4CCC(N)CC4)nc3-c3ccc(C#N)c(F)c3)cnc21 [Example 55, 4-[6-(4-aminopiperidin-1-yl)-3-{1-methyl-1H-pyrrolo[2,3-b]pyridin-5-yl}pyrazin-2-yl]-2-fluorobenzonitrile] | < 100 | < 100
3 | CN(C)C1CCN(c2cnc(-c3ccc4nn(C)cc4c3)c(-c3ccc(C#N)c(F)c3)n2)CC1 [Example 60, 4-{6-[4-(dimethylamino)piperidyl]-3-(2-methyl(2H-indazol-5-yl))pyrazin-2-yl}-2-fluorobenzenecarbonitrile] | < 100 | < 100

Next, values leading:

Row | IC50 [1] [nM] | IC50 [2] [nM] | Structure (SMILES)
4 | < 100 | < 100 | CNC1CCN(c2cnc(C#CC3(O)CCCC3)c(-c3ccc(C#N)c(F)c3)n2)CC1 [Example 64, 2-fluoro-4-[3-[2-(1-hydroxycyclopentyl)ethynyl]-6-[4-(methylamino)piperidin-1-yl]pyrazin-2-yl]benzonitrile]
5 | < 100 | < 100 | CC(C)n1cnc2cc(-c3ncc(N4CCC(N)CC4)nc3-c3ccc(C#N)c(F)c3)c(F)cc21 [Example 70, 4-[6-(4-aminopiperidin-1-yl)-3-(6-fluoro-1-propan-2-ylbenzimidazol-5-yl)pyrazin-2-yl]-2-fluorobenzonitrile]
